# Experimental data as given in patent publication US20250101470A1, “METHOD FOR IMPROVING THE YIELD OF ERINACINE A BY LIQUID FERMENTATION OF HERICIUM ERINACEUS” (Zhejiang University of Technology, priority 2023, published 2025).
# Where “and” joins values, the source holds several entries; their conditions need not be identical. Equal entries are not always repeated.
# System: Hericium erinaceus strain ACCC50268
# Test: Liquid fermentation of Hericium erinaceus with an inducer added; mycelium weighed, Erinacine A in methanol extract measured by HPLC
# Type: cell-based
# Details: for effect on Erinacine A yield (in words): 5 mg/L added on 5th day; for increase of Erinacine A content in the mycelium: 5 mg/L inducer versus no inducer (0.19±0.05 mg/g dry mycelium); for increase of Erinacine A yield: 5 mg/L inducer versus no inducer (4.48±0.96 mg/L)
# Method: The strain number of a Hericium erinaceus strain is ACCC50268; source: China Agricultural Culture Collection and Management Center.
# (S.1) A strain of Hericium erinaceus was subcultured for 3 generations to achieve strain activation. The subculture temperature is 25-28° C., and the optimal culture temperature in this example is 28° C., and the time is 14 days, so that the entire inclined plane can be grown to obtain a slope strain. The components of PDA inclined medium are: potato extract, 15-25 g of glucose, 10-15 g of agar powder, and the volume is set to 1 L with water. In this example, the optimal PDA inclined medium components are as follows: potato extract, 20 g of glucose, 15 g of agar powder, and the volume is determined to 1 L with water;
# (S.2) The slope strains obtained in step (S.1) were inoculated into the primary liquid seed medium for culture. One vial of bevel strains was inoculated into two vials of primary liquid seed medium. The components of liquid seed medium are: glucose 25-35 g, soybean meal powder 15-30 g, potassium dihydrogen phosphate 0.5-2 g, magnesium sulfate 0-1 g, and the balance is water. The culture conditions of liquid seed medium are: 1-10 days at 25-28° C. and 130-160 rpm in the dark. In this example, the optimal liquid seed medium components are as follows: glucose 30 g, soybean meal powder 20 g, potassium dihydrogen phosphate 1 g, magnesium sulfate 0.5 g, and the balance is water. The medium was fixed to 1 L with purified water, and the prepared liquid seed medium was loaded into a 500 mL Erlenmeyer flask with a liquid volume of 200 mL, and cultured at 27° C. and 140 rpm for 7 days in the dark, and the liquid seeds of Hericium erinaceus were obtained.
# (S.3) the liquid seeds obtained in step (S.2) are inoculated into the liquid fermentation medium for liquid fermentation culture, the ratio of the liquid seed inoculation volume of Hericium erinaceus to the volume of the liquid fermentation medium is 8-12.5% (i.e., the inoculation amount of Hericium erinaceus liquid seeds is 8-12.5%), and the optimal inoculation amount of Hericium erinaceus liquid seeds in this example is 10%. The components of liquid fermentation medium are: glucose 25-50 g, yeast powder 10-30 g, potassium dihydrogen phosphate 0.5-2 g, magnesium sulfate 0-1 g, and the balance is water. The culture conditions of liquid fermentation medium are: 1-10 days at 25-28° C. and 130-160 rpm in the dark. In this example, the optimal liquid fermentation medium components are as follows: 30 g of glucose, 30 g of yeast powder, 1 g of potassium dihydrogen phosphate, 0.5 g of magnesium sulfate, and the balance is water. The medium was fixed to 1 L with distilled water, and the prepared liquid seed medium was packed into a 500 mL Erlenmeyer flask with a liquid volume of 200 mL, and incubated at 27° C. and 140 rpm for 7 days in the dark. […]
# seeds of Hericium erinaceus obtained in step (S.2) into liquid fermentation medium for liquid fermentation, […] fermentation medium to a concentration of 5 mg/L. […] After the end of fermentation, the medium was filtered through 80 mesh gauze, washed with water three times, and then dried overnight at 60° C. with hot air to obtain Hericium erinaceus mycelium;
# (S.4) The Hericium erinaceus mycelium obtained in step (S.3) was crushed, and 1 g of Hericium erinaceus mycelium dry powder was added to 20 mL of 80% methanol, heated and ultrasonicated. The reaction conditions for ultrasonic extraction of Erinacine A are as follows: ultrasonic power is 200-350 W, heating reaction temperature is 50-70° C., and ultrasonic reaction time is 40-90 min. In this example, the reaction conditions for the optimal ultrasonic extraction of Erinacine A are as follows: ultrasonic extraction at 60° C. and ultrasonic power of 300 W for 60 min. The supernatant was centrifuged to obtain an alcohol extract containing Erinacine A. The alcohol extract was filtered through a 0.22 μm filter membrane and then analyzed in liquid phase. […]
# [1] = 5 mg/L, added on 4th day, 6 days induction fermentation
# [2] = 5 mg/L, added on 5th day, 3 days induction fermentation
# [3] = 5 mg/L, added on 5th day, 5 days induction fermentation
# [4] = 5 mg/L, added on 5th day, 8 days induction fermentation
# [5] = 5 mg/L, added on 6th day, 6 days induction fermentation
# [6] = 5 mg/L, added on 7th day, 6 days induction fermentation
# [7] = 5 mg/L, added on 8th day, 6 days induction fermentation
# [8] = 5 mg/L, added on third day, 6 days induction fermentation
# [9] = 10 mg/L, added on 5th day, 6 days induction fermentation
# [10] = 50 mg/L, added on 5th day, 6 days induction fermentation
# [11] = inducer 5 mg/L in liquid fermentation medium, added on 5th day, 6 days induction fermentation
# [12] = inducer 5 mg/L in liquid fermentation medium, added on 5th day, 6 days induction fermentation, listed as Example 1
# [13] = 1 mL of the substance (purity greater than 95%) added on 5th day, 6 days induction fermentation
# [14] = inducer 5 mg/L in liquid fermentation medium, added on 5th day, 6 days induction fermentation, listed as Example 2
# [15] = 1 mg/L, added on 5th day, 6 days induction fermentation
# [16] = 5 mg/L, added on 5th day, 1 day induction fermentation
# [17] = 5 mg/L, added on 5th day, 2 days induction fermentation
# [18] = 5 mg/L, added on 5th day, 4 days induction fermentation
# [19] = 20 mg/L, added on 5th day, 6 days induction fermentation
compound,measurement,setting,value
C[n+]1ccc(-c2cc[n+](C)cc2)cc1 [methyl viologen],effect on Erinacine A yield (in words),6 days induction fermentation,significantly increased the yield of Erinacine A
same,increase of Erinacine A content in the mycelium,,about 115.47 times
same,increase of Erinacine A yield,,about 92.60 times
same,Erinacine A content,[1],1.52 ± 0.30 mg/g dried mycelium
same,Erinacine A yield,[1],22.18 ± 3.84 mg/L
same,Mycelium yield,[1],2.00 ± 0.84 g/L
same,Erinacine A content,[2],2.29 ± 0.52 mg/g dried mycelium
same,Erinacine A yield,[2],40.30 ± 7.52 mg/L
same,Mycelium yield,[2],17.68 ± 0.50 g/L
same,Erinacine A content,[3],16.58 ± 0.43 mg/g dried mycelium
same,Erinacine A yield,[3],276.77 ± 4.72 mg/L
same,Mycelium yield,[3],5.45 ± 1.39 g/L
same,Erinacine A content,[4],8.97 ± 2.33 mg/g dried mycelium
same,Erinacine A yield,[4],179.50 ± 62.29 mg/L
same,Mycelium yield,[4],19.79 ± 0.76 g/L
same,Erinacine A content,[5],2.98 ± 1.16 mg/g dried mycelium
same,Erinacine A yield,[5],69.29 ± 30.01 mg/L
same,Mycelium yield,[5],23.05 ± 1.08 g/L
same,Erinacine A content,[6],2.68 ± 0.66 mg/g dried mycelium
same,Erinacine A yield,[6],61.60 ± 10.06 mg/L
same,Mycelium yield,[6],23.22 ± 1.93 g/L
same,Erinacine A content,[7],0.57 ± 0.12 mg/g dried mycelium
same,Erinacine A yield,[7],13.29 ± 2.55 mg/L
same,Mycelium yield,[7],23.28 ± 0.57 g/L
same,Erinacine A content,[8],0.05 ± 0.01 mg/g dried mycelium
same,Erinacine A yield,[8],0.41 ± 0.06 mg/L
same,Mycelium yield,[8],8.64 ± 1.54 g/L
same,Erinacine A content,[9],20.61 ± 3.21 mg/g dried mycelium
same,Erinacine A yield,[9],400.44 ± 69.30 mg/L
same,Mycelium yield,[9],7.40 ± 0.36 g/L
same,Erinacine A content,[10],0.21 ± 0.04 mg/g dried mycelium
same,Erinacine A yield,[10],3.71 ± 1.06 mg/L
same,Mycelium yield,[10],17.71 ± 1.29 g/L
same,Erinacine A content,[11],21.94±2.40 mg/g dried mycelium
same,Erinacine A yield,[11],414.84 ± 30.03 mg/L
same,Mycelium yield,[11],18.96 ± 0.69 g/L
same,Erinacine A content,[12],94.94 ± 2.40 mg/g dried mycelium
same,Erinacine A yield,[12],414.84 ± 30.03 mg/L and 418.84 ± 30.03 mg/L
same,effect on liquid fermentation growth of Hericium erinaceus (in words),methyl viologen solution added at different times,inhibitory effect on the liquid fermentation growth of Hericium erinaceus
CCCCCCCC/C=C\CCCCCCCC(=O)O [oleic acid],effect on synthesis of Erinacine A (in words),1 mL added on the 5th day of liquid fermentation,did not show obvious stimulating effects
same,Erinacine A content,[13],0.20 ± 0.10 mg/g dried mycelium
same,Erinacine A yield,[13],4.70 ± 2.16 mg/L
same,Mycelium yield,[13],23.72 ± 1.04 g/L
C=C(C)[C@H]1Cc2c(ccc3c2O[C@@H]2COc4cc(OC)c(OC)cc4[C@@H]2C3=O)O1 [rotenone],effect on Erinacine A yield (in words),6 days induction fermentation,positive effect on the increase of Erinacine A yield
same,increase of Erinacine A content in the mycelium,,about 2.52 times
same,increase of Erinacine A yield,,about 2.06 times
same,Erinacine A content,[11],0.67 mg/g dried mycelium and 0.67±0.04 mg/g dried mycelium
same,Erinacine A yield,[11],13.72 mg/L and 13.72 ± 0.24 mg/L
same,Mycelium yield,[11],8.50 ± 1.69 g/L
same,Erinacine A content,[14],0.67 ± 0.04 mg/g dried mycelium
same,Erinacine A yield,[14],13.72 ± 0.24 mg/L
methyl viologen,Erinacine A content,[15],0.63 ± 0.09 mg/g dried mycelium
same,Erinacine A yield,[15],13.93 ± 4.56 mg/L
same,Mycelium yield,[15],9.49 ± 2.94 g/L
same,Erinacine A content,[16],0.07 ± 0.01 mg/g dried mycelium
same,Mycelium yield,[16],20.16 ± 0.85 g/L
same,Erinacine A content,[17],0.68 ± 0.27 mg/g dried mycelium
same,Erinacine A yield,[17],12.53 ± 3.82 mg/L
same,Mycelium yield,[17],17.94 ± 1.68 g/L
same,Erinacine A content,[18],5.49 ± 1.60 mg/g dried mycelium
same,Erinacine A yield,[18],103.99 ± 18.67 mg/L
same,Erinacine A content,[19],1.50 ± 0.38 mg/g dried mycelium
same,Erinacine A yield,[19],29.47 ± 7.44 mg/L
same,Mycelium yield,[19],19.61 ± 0.48 g/L
